From patent US20040072846A1, “Pharmaceutical formulation containing thienopyrimidines and antithrombotics, calcium antagonists, prostaglandins or prostaglandin derivatives” (priority 2000, published 2004) come the findings set out here.

`COc1ccc(CNc2nc(CCC(=O)O)nc3sc4c(c23)CCCC4)cc1Cl` [Example 2, 3-[4-(3-chloro-4-methoxybenzylamino)-5,6,7,8-tetrahydro-[1]-benzothieno-[2,3-d]-pyrimidin-2-yl]propionic acid] showed a melting point of 229 °C.
